Literature values, collected in patent US20240065969A1, “OPHTHALMIC TOPICAL CREAM FORMULATIONS AND USES THEREOF” (Glaukos Corporation, priority 2022, published 2024).

pKa: ~6.5
SMILES: CC[C@@H]1C(=O)OC[C@@H]1Cc1cncn1C [pilocarpine]
